Where only a bound is given, the exact number is not on record here.

In one assay the target is HDAC6 human recombinant (Homo sapiens (Human), UniProt Q9UBN7). In words: HDAC6 enzyme activity inhibition assay (fluorimetric). The assay is classed as biochemical. Particulars: test substance 0.1-1000 nM; 37° C. 60 minutes, developer 30 minutes; fluorescence Ex 390, Em 460. The method, then:
(§1) The HDAC enzyme inhibition ability of the test substance was measured using the HDAC1 Fluorimetric Drug Discovery Assay Kit (Enzo life sciences: BML-AK511) and the HDAC6 human recombinant (Calbiochem: 382180). In the HDAC1 assay, the test substance was treated at concentrations of 100, 1000, and 10000 nM, and in the HDAC6 assay, the test substance was treated at concentrations of 0.1, 1, 10, 100, and 1000 nM. After sample treatment, the samples were reacted at 37° C. for 60 minutes, followed by reaction at 37° C. for 30 minutes by treatment with a developer, and fluorescence intensities (Ex 390, Em 460) thereof were measured using FlexStatin3 (Molecular device).

The target in the next assay is HDAC1 (Homo sapiens (Human), UniProt Q13547). In words: HDAC1 enzyme activity inhibition assay (HDAC1 Fluorimetric Drug Discovery Assay Kit). It counts as biochemical. Particulars: test substance 100, 1000, 10000 nM; 37° C. 60 minutes, developer 30 minutes; fluorescence Ex 390, Em 460. How it is done: as §1
Sequence of HDAC1 (Q13547 whole entry): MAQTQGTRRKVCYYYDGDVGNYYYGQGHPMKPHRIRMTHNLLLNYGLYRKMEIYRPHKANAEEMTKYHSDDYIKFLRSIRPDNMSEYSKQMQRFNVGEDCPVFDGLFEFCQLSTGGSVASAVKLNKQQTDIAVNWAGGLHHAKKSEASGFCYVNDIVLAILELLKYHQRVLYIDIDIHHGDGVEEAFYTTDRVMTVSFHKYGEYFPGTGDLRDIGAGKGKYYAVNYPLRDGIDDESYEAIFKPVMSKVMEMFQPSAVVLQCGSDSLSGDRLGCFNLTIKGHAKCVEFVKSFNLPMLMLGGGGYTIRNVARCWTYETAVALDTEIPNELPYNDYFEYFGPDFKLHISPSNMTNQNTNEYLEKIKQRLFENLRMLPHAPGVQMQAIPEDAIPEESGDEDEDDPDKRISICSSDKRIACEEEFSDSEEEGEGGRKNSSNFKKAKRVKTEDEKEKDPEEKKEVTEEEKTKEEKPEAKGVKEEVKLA

Sequence of HDAC6 human recombinant (Q9UBN7 whole entry): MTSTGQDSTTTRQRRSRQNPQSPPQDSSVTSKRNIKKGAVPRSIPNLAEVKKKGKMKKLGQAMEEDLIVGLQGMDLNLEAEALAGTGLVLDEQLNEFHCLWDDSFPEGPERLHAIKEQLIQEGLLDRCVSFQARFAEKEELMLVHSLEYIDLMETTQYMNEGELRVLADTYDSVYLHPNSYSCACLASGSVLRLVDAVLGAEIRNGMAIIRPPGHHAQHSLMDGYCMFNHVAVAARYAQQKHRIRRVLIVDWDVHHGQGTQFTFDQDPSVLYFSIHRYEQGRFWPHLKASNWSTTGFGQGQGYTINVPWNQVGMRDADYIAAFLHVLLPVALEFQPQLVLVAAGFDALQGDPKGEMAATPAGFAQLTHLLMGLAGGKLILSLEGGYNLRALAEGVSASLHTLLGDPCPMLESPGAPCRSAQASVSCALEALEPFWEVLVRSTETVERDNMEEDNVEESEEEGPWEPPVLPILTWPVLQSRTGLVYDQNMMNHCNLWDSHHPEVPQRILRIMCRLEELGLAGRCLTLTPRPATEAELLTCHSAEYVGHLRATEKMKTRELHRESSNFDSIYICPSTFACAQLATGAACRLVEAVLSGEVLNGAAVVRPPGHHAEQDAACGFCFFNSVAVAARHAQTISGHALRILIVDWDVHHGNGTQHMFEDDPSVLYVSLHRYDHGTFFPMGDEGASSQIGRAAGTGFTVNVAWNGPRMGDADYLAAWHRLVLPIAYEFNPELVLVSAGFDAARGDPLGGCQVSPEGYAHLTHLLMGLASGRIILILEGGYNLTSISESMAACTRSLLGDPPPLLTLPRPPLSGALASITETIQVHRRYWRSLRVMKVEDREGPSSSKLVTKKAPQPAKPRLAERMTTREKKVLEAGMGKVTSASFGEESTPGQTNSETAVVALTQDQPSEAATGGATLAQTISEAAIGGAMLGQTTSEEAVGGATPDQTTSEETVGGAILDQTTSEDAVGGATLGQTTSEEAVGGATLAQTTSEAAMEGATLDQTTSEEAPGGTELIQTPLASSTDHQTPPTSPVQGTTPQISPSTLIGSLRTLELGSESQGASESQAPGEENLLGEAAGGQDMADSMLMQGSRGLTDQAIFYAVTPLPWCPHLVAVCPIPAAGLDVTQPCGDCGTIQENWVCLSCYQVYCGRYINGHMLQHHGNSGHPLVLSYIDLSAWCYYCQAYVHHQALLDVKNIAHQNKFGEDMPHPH

In general, IC50 refers to the concentration that inhibits the measured activity by half. As for `CN1CCN(c2c(N(Cc3ccc(-c4nnc(C(F)F)o4)cc3F)c3ccccc3)c(=O)c2=O)CC1` [Compound 1, 3-((4-(5-(difluoromethyl)-1,3,4-oxadiazol-2-yl)-2-fluorobenzyl)(phenyl)amino)-4-(4-methylpiperazin-1-yl)cyclobut-3-ene-1,2-dione], the results for the IC50 on HDAC6 human recombinant and at HDAC1 were 22 nM and above 10000 nM, respectively.

At HDAC1, `O=c1c(N2CCOCC2)c(N(Cc2ccc(-c3nnc(C(F)F)o3)cc2F)c2ccccc2)c1=O` [Compound 2, 3-((4-(5-(difluoromethyl)-1,3,4-oxadiazol-2-yl)-2-fluorobenzyl)(phenyl)amino)-4-morpholinocyclobut-3-ene-1,2-dione] gave an IC50 above 10000 nM.

For `O=c1c(N2CCS(=O)(=O)CC2)c(N(Cc2ccc(-c3nnc(C(F)F)o3)cc2F)c2ccccc2)c1=O` [Compound 3, 3-((4-(5-(difluoromethyl)-1,3,4-oxadiazol-2-yl)-2-fluorobenzyl)(phenyl)amino)-4-(1,1-dioxidothiomorpholino)cyclobut-3-ene-1,2-dione], the IC50 on HDAC6 human recombinant was 27 nM; at HDAC1 it was above 10000 nM.

For `CN1CCN(c2c(N(Cc3ccc(-c4nnc(C(F)F)o4)cc3)c3ccccc3)c(=O)c2=O)CC1` [Compound 4, 3-((4-(5-(difluoromethyl)-1,3,4-oxadiazol-2-yl)benzyl)(phenyl)amino)-4-(4-methylpiperazin-1-yl)cyclobut-3-ene-1,2-dione], the IC50 is 31 nM on HDAC6 human recombinant and above 10000 nM against HDAC1.

Turning to `O=c1c(N2CCS(=O)(=O)CC2)c(N(Cc2ccc(-c3nnc(C(F)F)o3)cc2)c2ccccc2)c1=O` [Compound 5, 3-((4-(5-(difluoromethyl)-1,3,4-oxadiazol-2-yl)benzyl)(phenyl)amino)-4-(1,1-dioxidothiomorpholino)cyclobut-3-ene-1,2-dione], the IC50 on HDAC6 human recombinant is 29 nM; against HDAC1, above 10000 nM.

On HDAC1, `O=c1c(N2CCS(=O)(=O)CC2)c(N(Cc2ncc(-c3nnc(C(F)F)o3)cc2F)c2ccccc2)c1=O` [Compound 6, 3-(((5-(5-(difluoromethyl)-1,3,4-oxadiazol-2-yl)-3-fluoropyridin-2-yl)methyl)(phenyl)amino)-4-(1,1-dioxidothiomorpholino)cyclobut-3-ene-1,2-dione] yielded an IC50 above 10000 nM.

On to `CN1CCN(c2c(N(Cc3ccc(-c4nnc(C(F)F)o4)cc3F)c3cc(F)cc(Br)c3)c(=O)c2=O)CC1` [Compound 7, 3-((3-bromo-5-fluorophenyl)(4-(5-(difluoromethyl)-1,3,4-oxadiazol-2-yl)-2-fluorobenzyl)amino)-4-(4-methylpiperazin-1-yl)cyclobut-3-ene-1,2-dione], for which the 50% inhibitory concentration (IC50) on HDAC6 human recombinant is 36 nM; against HDAC1, above 10000 nM.

With `CN1CCN(c2c(N(Cc3ccc(-c4nnc(C(F)F)o4)cc3F)c3cc(F)cc(-c4cccnc4)c3)c(=O)c2=O)CC1` [Compound 8, 3-((4-(5-(difluoromethyl)-1,3,4-oxadiazol-2-yl)-2-fluorobenzyl)(3-fluoro-5-(pyridin-3-yl)phenyl)amino)-4-(4-methylpiperazin-1-yl)cyclobut-3-ene-1,2-dione], the IC50 on HDAC6 human recombinant was 35 nM; against HDAC1, above 10000 nM.

In the case of `O=c1c(N2CC3(C2)CN(C2COC2)C3)c(N(Cc2ccc(-c3nnc(C(F)F)o3)cc2F)c2ccccc2)c1=O` [Compound 10, 3-((4-(5-(difluoromethyl)-1,3,4-oxadiazol-2-yl)-2-fluorobenzyl)(phenyl)amino)-4-(6-(oxetan-3-yl)-2,6-diazaspiro[3.3]heptan-2-yl)cyclobut-3-ene-1,2-dione], the 50% inhibitory concentration (IC50) was 56 nM at HDAC6 human recombinant and above 10000 nM at HDAC1.

`CN1CC2(C1)CN(c1c(N(Cc3ccc(-c4nnc(C(F)F)o4)cc3)c3ccccc3)c(=O)c1=O)C2` [Compound 11, 3-((4-(5-(difluoromethyl)-1,3,4-oxadiazol-2-yl)benzyl)(phenyl)amino)-4-(6-methyl-2,6-diazaspyro[3.3]heptan-2-yl)cyclobut-3-ene-1,2-dione]: the IC50 is 60 nM at HDAC6 human recombinant and above 10000 nM at HDAC1.

Take `CN1CCN(c2c(N(Cc3ccc(-c4nnc(C(F)F)o4)cc3F)c3cccc(Br)c3)c(=O)c2=O)CC1` [Compound 12, 3-((3-bromophenyl)(4-(5-(difluoromethyl)-1,3,4-oxadiazol-2-yl)-2-fluorobenzyl)amino)-4-(4-methylpiperazin-1-yl)cyclobut-3-ene-1,2-dione]: the IC50 is 30 nM on HDAC6 human recombinant and above 10000 nM against HDAC1.

In the case of `O=c1c(N(Cc2ccc(-c3nnc(C(F)F)o3)cc2F)c2ccccc2)c(N2C[C@@H]3C[C@H]2CN3C2COC2)c1=O` [Compound 13, 3-((4-(5-(difluoromethyl)-1,3,4-oxadiazol-2-yl)-2-fluorobenzyl)(phenyl)amino)-4-((1S,4S)-5-(oxetan-3-yl)-2,5-diazabicyclo[2.2.1]heptan-2-yl)cyclobut-3-ene-1,2-dione], the IC50 at HDAC6 human recombinant is 24 nM; at HDAC1 it was above 10000 nM.

The compound `CN1C[C@@H]2C[C@H]1CN2c1c(N(Cc2ccc(-c3nnc(C(F)F)o3)cc2F)c2ccccc2)c(=O)c1=O` [Compound 14, 3-((4-(5-(difluoromethyl)-1,3,4-oxadiazol-2-yl)-2-fluorobenzyl)(phenyl)amino)-4-((1S,4S)-5-methyl-2,5-diazabicyclo[2.2.1]heptan-2-yl)cyclobut-3-ene-1,2-dione] yielded a half-inhibitory concentration (IC50) against HDAC1 above 10000 nM.

Regarding `CN1C[C@@H]2C[C@H]1CN2c1c(N(Cc2ccc(-c3nnc(C(F)F)o3)cn2)c2ccccc2)c(=O)c1=O` [Compound 15, 3-(((5-(5-(difluoromethyl)-1,3,4-oxadiazol-2-yl)pyridin-2-yl)methyl)(phenyl)amino)-4-((1S,4S)-5-methyl-2,5-diazabicyclo[2.2.1]heptan-2-yl)cyclobut-3-ene-1,2-dione], the IC50 is 22 nM at HDAC6 human recombinant and above 10000 nM on HDAC1.

In the case of `CC(C)N1C[C@@H]2C[C@H]1CN2c1c(N(Cc2ccc(-c3nnc(C(F)F)o3)cn2)c2ccccc2)c(=O)c1=O` [Compound 16, 3-(((5-(5-(difluoromethyl)-1,3,4-oxadiazol-2-yl)pyridin-2-yl)methyl)(phenyl)amino)-4-((1S,4S)-5-isopropyl-2,5-diazabicyclo[2.2.1]heptan-2-yl)cyclobut-3-ene-1,2-dione], the IC50 on HDAC6 human recombinant was 28 nM; against HDAC1 it was above 10000 nM.

Take `O=c1c(N(Cc2ccc(-c3nnc(C(F)F)o3)cn2)c2ccccc2)c(N2C[C@@H]3C[C@H]2CN3C2COC2)c1=O` [Compound 17, 3-(((5-(5-(difluoromethyl)-1,3,4-oxadiazol-2-yl)pyridin-2-yl)methyl)(phenyl)amino)-4-((1S,4S)-5-(oxetan-3-yl)-2,5-diazabicyclo[2.2.1]heptan-2-yl)cyclobut-3-ene-1,2-dione]: the IC50 on HDAC6 human recombinant is 43 nM; on HDAC1, above 10000 nM.

For the compound `CN1CCN(c2c(N(Cc3ccc(-c4nnc(C(F)F)o4)cn3)c3cccc(-c4cccnc4)c3)c(=O)c2=O)CC1` [Compound 18, 3-(((5-(5-(difluoromethyl)-1,3,4-oxadiazol-2-yl)pyridin-2-yl)methyl)(3-(pyridin-3-yl)phenyl)amino)-4-(4-methylpiperazin-1-yl)cyclobut-3-ene-1,2-dione], the IC50 was 51 nM on HDAC6 human recombinant and above 10000 nM against HDAC1.

Take `CN1CCN(c2c(N(Cc3ccc(-c4nnc(C(F)F)o4)cn3)c3cccc(-c4ccncc4)c3)c(=O)c2=O)CC1` [Compound 19, 3-(((5-(5-(difluoromethyl)-1,3,4-oxadiazol-2-yl)pyridin-2-yl)methyl)(3-(pyridin-4-y 1)phenyl)amino)-4-(4-methylpiperazin-1-yl)cyclobut-3-ene-1,2-dione]: the IC50 on HDAC6 human recombinant is 102 nM; against HDAC1, above 10000 nM.

The compound `CN1C[C@@H]2C[C@H]1CN2c1c(N(Cc2ncc(-c3nnc(C(F)F)o3)cc2F)c2ccccc2)c(=O)c1=O` [Compound 20, 3-(((5-(5-(difluoromethyl)-1,3,4-oxadiazol-2-yl)-3-fluoropyridin-2-yl)methyl)(phenyl)amino)-4-((1S,4S)-5-methyl-2,5-diazabicyclo[2.2.1]heptan-2-yl)cyclobut-3-ene-1,2-dione] came in with an IC50 against HDAC1 above 10000 nM.

`O=c1c(N(Cc2ncc(-c3nnc(C(F)F)o3)cc2F)c2ccccc2)c(N2C[C@@H]3C[C@H]2CN3C2COC2)c1=O` [Compound 21, 3-(((5-(5-(difluoromethyl)-1,3,4-oxadiazol-2-yl)-3-fluoropyridin-2-yl)methyl)(phenyl)amino)-4-((1S,4S)-5-(oxetan-3-yl)-2,5-diazabicyclo[2.2.1]heptan-2-yl)cyclobut-3-ene-1,2-dione] had an IC50 against HDAC1 above 10000 nM.

For `CN1CCN(c2c(N(Cc3ccc(-c4nnc(C(F)F)o4)cc3F)c3ccc(F)c(F)c3)c(=O)c2=O)CC1` [Compound 22, 3-((4-(5-(difluoromethyl)-1,3,4-oxadiazol-2-yl)-2-fluorobenzyl)(3,4-difluorophenyl)amino)-4-(4-methylpiperazin-1-yl)cyclobut-3-ene-1,2-dione], the 50% inhibitory concentration (IC50) at HDAC6 human recombinant was 64 nM; against HDAC1, above 10000 nM.

Regarding `O=c1c(N2CCN(C3COC3)CC2)c(N(Cc2ccc(-c3nnc(C(F)F)o3)cc2F)c2ccc(F)c(F)c2)c1=O` [Compound 23, 3-((4-(5-(difluoromethyl)-1,3,4-oxadiazol-2-yl)-2-fluorobenzyl)(3,4-difluorophenyl)amino)-4-(4-(oxetan-3-yl)piperazin-1-yl)cyclobut-3-ene-1,2-dione], the half-inhibitory concentration (IC50) was 50 nM at HDAC6 human recombinant and above 10000 nM against HDAC1.
